Results from publication PMC11672724, “Antiparasitic Activities of Acyl Hydrazones from Cinnamaldehydes and Structurally Related Fragrances” (Antibiotics, 2024).

How the values were obtained:
macrophages = test: Macrophage cytotoxicity (MTT assay, 72 h); type: cell-based, BALB/c mice; conditions: Mus musculus, IC50 ± SD
Description: Plates were incubated for 24 h at 37 °C in a 5% CO2 environment to allow infection and amastigote differentiation. Infected cells were then washed with PBS and overlaid with RPMI 1640 medium containing the test compounds at the same concentrations as applied for the experiments with promastigotes, followed by incubation at 37 °C and 5% CO2 for 72 h. […] The percentage of infected macrophages was determined microscopically after fixation, Giemsa staining, and medium removal. IC50 values were calculated from three independent experiments. To assess the test compounds’ cytotoxicity, MTT assays were performed. […] Negative control cells were only given media with 2% FBS and 1% DMSO. The cells were cultured for 4 h after the supernatant was disposed of, and 50 μL of RPMI 1640 media containing 14 μL MTT (5 mg/mL) was added. After removing the supernatant once again, 150 μL of DMSO was added. IC50 values were determined from three independent experiments.

Vero monkey kidney cells = test: Vero cell cytotoxicity (MTT assay, 72 h); type: cell-based; conditions: Primates, IC50 ± SD
Description: To assess the test compounds’ cytotoxicity, MTT assays were performed. The Vero cells and macrophages were cultivated for 24 h at 37 °C in RPMI 1640 media with 10% FBS and 5% CO2 in 96-well plates (5 × 10^3 cells/well/200 μL). Following a washing step with PBS, the cells were treated with test compounds at different concentrations (50, 25, 12.5, 6.25, 3.13, 1.65, and 0.75 μg /mL) in 10% FBS medium for 72 h. Negative control cells were only given media with 2% FBS and 1% DMSO. The cells were cultured for 4 h after the supernatant was disposed of, and 50 μL of RPMI 1640 media containing 14 μL MTT (5 mg/mL) was added. After removing the supernatant once again, 150 μL of DMSO was added. IC50 values were determined from three independent experiments.

L. major amastigotes = test: Leishmania major amastigotes in peritoneal macrophages (percentage of infected macrophages, 72 h); type: cell-based; conditions: Macrophage, IC50 ± SD
Description: (§1) Promastigotes of L. major were obtained from a patient (February 2016) and cultured at 26 °C in Schneider’s Drosophila medium (Invitrogen, Carlsbad, CA, USA) supplemented with 10% heat-inactivated fetal bovine serum (FBS, Invitrogen, USA) and antibiotics, with weekly transfers in a tissue culture flask. Promastigotes were cryopreserved in liquid nitrogen at a concentration of 3 × 10^6 parasites/mL. Virulent L. major parasites were maintained by serial passage in female BALB/c mice, achieved by injecting hind footpads with 1 × 10^6 stationary-phase promastigotes. Amastigotes were isolated from the mice after 8 weeks, then converted to promastigotes by cultivation at 26 °C in Schneider’s medium containing 10% FBS and antibiotics. Amastigote-derived promastigotes, which underwent several in vitro passages, were used for the infection studies. BALB/c mice (both male and female) were provided by the Pharmaceutical College, King Saud University, Kingdom of Saudi Arabia, and housed in specific pathogen-free conditions following the ethical guidelines of the Qassim University Research Ethics Committee (permission number: 20-03-20).
Activity against amastigotes in macrophages was evaluated using peritoneal macrophages, which were harvested from 6–8-week-old BALB/c mice of different sex, and plated at 5 × 10^4 cells/well in 96-well plates containing phenol-red-free RPMI 1640 medium with 10% FBS. After 4 h at 37 °C and 5% CO2 to promote adhesion, cells were washed with PBS, and 200 μL of an L. major promastigote solution (10 promastigotes per macrophage) was added. Plates were incubated for 24 h at 37 °C in a 5% CO2 environment to allow infection and amastigote differentiation. Infected cells were then washed with PBS and overlaid with RPMI 1640 medium containing the test compounds at the same concentrations as applied for the experiments with promastigotes, followed by incubation at 37 °C and 5% CO2 for 72 h. […] IC50 values were calculated from three independent experiments.

[1] = tested on: T. gondii RH strain tachyzoites; test: Toxoplasma gondii cells drug testing assay (infection index in Vero cells, 72 h); type: cell-based; conditions: for IC50: Toxoplasma gondii, Vero, IC50 ± SD, three independent experiments, 72 h; for SI = selectivity index (Vero/T. gondii): ratio IC50 Vero / IC50 T. gondii
Description: Cells of the Vero cell line (ATCC® CCL81™, Manassas, VA, USA) were used to cultivate T. gondii RH strain tachyzoites. Vero cells were maintained in complete RPMI 1640 medium (Thermo Fisher Scientific, Waltham, MA, USA). For cell cultivation, 96-well plates were prepared with 5 × 10^3 cells per well in 200 μL of RPMI 1640 medium, then incubated at 37 °C and 5% CO2 for 24 h. The medium was then removed, and cells were washed with phosphate-buffered saline (PBS). Next, RPMI 1640 medium with 2% FBS and parasites at a 5:1 parasite-to-cell ratio were added. After a 5 h incubation at 37 °C and 5% CO2, cells were washed with PBS and subjected to further treatments. […] After incubation at 37 °C and 5% CO2 for 72 h, cells were washed with PBS, fixed in 10% formalin, and stained with 1% toluidine blue. An inverted photomicroscope was used to assess cell infection and to determine the infection index (number of infected cells out of 200 counted cells). The inhibition percentage was calculated as follows:Inhibition (%) = [(I Control − I Experimental)/I Control] × 100 where “I Control” represents the infection index of untreated cells, and “I Experimental” represents the infection index of cells treated with test compounds. The effects of the compounds on parasite growth are expressed as IC50 values derived from three independent experiments.

L. major promastigotes = test: Leishmania major promastigote assay (MTT, 72 h); type: cell-based; conditions: for IC50: 72 h, IC50 ± SD, MTT
Description: as §1
L. major promastigotes in the logarithmic phase were cultured in phenol-red-free RPMI 1640 medium (Invitrogen, USA) with 10% FBS in 96-well plates at 10^6 cells/mL (200 μL/well, counted with a hemocytometer). Test compounds were added at final concentrations of 50, 25, 12.5, 6.25, 3.13, 1.65, and 0.75 μg/mL. […] After incubation at 26 °C for 72 h, viable promastigotes were counted using an MTT colorimetric assay. The formed formazan was dissolved in a detergent and the absorbance was measured at 570 nm using an ELISA reader. IC50 values were derived from three independent experiments.

CN(C)c1ccc(/C=C/C=N/NC(=O)c2ccccc2F)cc1 [Compound 2h, (E)-N′-(4-Dimethylaminocinnamylidene)-2-fluorobenzoylhydrazide]
IC50 (macrophages): > 64.2 µM
IC50 (Vero monkey kidney cells): 54.1 ± 9.1 µM
melting point: 205 to 206 °C
IC50 (L. major amastigotes): > 64.2 µM
IC50 [1]: 55.2 ± 9.7 µM
SI = selectivity index (Vero/T. gondii) [1]: 0.98
IC50 (L. major promastigotes; Leishmania major): > 64.2 µM

CN(C)c1ccc(/C=C/C=N/NC(=O)c2cccc(Cl)c2)cc1 [Compound 2k, (E)-N′-(4-Dimethylaminocinnamylidene)-3-chlorobenzoylhydrazide]
IC50 (macrophages): > 40.3 µM
IC50 (Vero monkey kidney cells): > 40.3 µM
melting point: 210 °C
IC50 (L. major amastigotes): > 40.3 µM
IC50 [1]: > 40.3 µM
IC50 (L. major promastigotes; Leishmania major): > 40.3 µM

CC(C)Cc1ccc(CC(C)/C=N/NC(=O)c2cccc(O)c2)cc1 (stereo not drawn) [Compound 3c, N′-2-Methyl-3-[4-(2-methylpropyl)phenyl]propanylidene-3-hydroxybenzoylhydrazide]
IC50 (macrophages): > 59.1 µM
IC50 (Vero monkey kidney cells): > 59.1 µM
melting point: 182 to 183 °C
IC50 (L. major amastigotes): > 59.1 µM
IC50 [1]: 55.3 ± 9.4 µM
IC50 (L. major promastigotes; Leishmania major): > 59.1 µM

CC(C)Cc1ccc(CC(C)/C=N/NC(=O)c2ccccc2O)cc1 (stereo not drawn) [Compound 3b, N′-2-Methyl-3-[4-(2-methylpropyl)phenyl]propanylidene-2-hydroxybenzoylhydrazide]
IC50 (macrophages): > 59.1 µM
IC50 (Vero monkey kidney cells): 24.6 ± 3.3 µM
melting point: 160 to 161 °C
IC50 (L. major amastigotes): 58.6 ± 8.6 µM
IC50 [1]: 13.7 ± 2.2 µM
SI = selectivity index (Vero/T. gondii) [1]: 1.8
IC50 (L. major promastigotes; Leishmania major): > 59.1 µM

CC(C)Cc1ccc(CC(C)/C=N/NC(=O)c2cccc(Cl)c2)cc1 (stereo not drawn) [Compound 3f, N′-2-Methyl-3-[4-(2-methylpropyl)phenyl]propanylidene-3-chlorobenzoylhydrazide]
IC50 (macrophages): > 56 µM
IC50 (Vero monkey kidney cells): 50.2 ± 7.7 µM
melting point: 88 to 89 °C
IC50 (L. major amastigotes): > 56 µM
IC50 [1]: 22 ± 3.3 µM
SI = selectivity index (Vero/T. gondii) [1]: 2.3
IC50 (L. major promastigotes): 29.1 ± 3.3 µM
IC50 (L. major promastigotes; Leishmania major): < 30 µM
SI (promastigotes) = selectivity index (macrophages/L. major promastigotes) (L. major promastigotes; ratio IC50 macrophages / IC50 promastigotes): >1.9

CC(C)c1cccc(C(C)C/C=N/NC(=O)c2cccc(O)c2)c1 (stereo not drawn) [Compound 4c, N′-3-(3-Isopropylphenyl)butanylidene-3-hydroxybenzoylhydrazide]
IC50 (macrophages): > 61.7 µM
IC50 (Vero monkey kidney cells): 29.1 ± 2.6 µM
melting point: 196 to 197 °C
IC50 (L. major amastigotes): > 61.7 µM
IC50 [1]: > 61.7 µM
IC50 (L. major promastigotes; Leishmania major): > 61.7 µM

O=C(N/N=C/C=C/c1ccccc1)c1cccc(F)c1 [Compound 2i, (E)-N′-(Cinnamylidene)-3-fluorobenzoylhydrazide]
IC50 (macrophages): > 49.2 µM
IC50 (Vero monkey kidney cells): 44 ± 6.7 µM
melting point: 205 to 206 °C
IC50 (L. major amastigotes): > 49.2 µM
IC50 [1]: 39.1 ± 6.4 µM
SI = selectivity index (Vero/T. gondii) [1]: 1.1
IC50 (L. major promastigotes; Leishmania major): > 49.2 µM

CC(C)Cc1ccc(CC(C)/C=N/NC(=O)c2ccccc2F)cc1 (stereo not drawn) [Compound 3d, N′-2-Methyl-3-[4-(2-methylpropyl)phenyl]propanylidene-2-fluorobenzoylhydrazide]
IC50 (macrophages): > 58.8 µM
IC50 (Vero monkey kidney cells): 56.1 ± 10.4 µM
melting point: 82 to 83 °C
IC50 (L. major amastigotes): > 58.8 µM
IC50 [1]: 46.3 ± 5.5 µM
SI = selectivity index (Vero/T. gondii) [1]: 1.2
IC50 (L. major promastigotes; Leishmania major): > 58.8 µM

O=C(N/N=C/C=C/c1ccccc1)c1cccc(O)c1 [Compound 2e, (E)-N′-(Cinnamylidene)-3-hydroxybenzoylhydrazide]
IC50 (macrophages): > 49.6 µM
IC50 (Vero monkey kidney cells): 46.2 ± 6.4 µM
melting point: 249 to 250 °C
IC50 (L. major amastigotes): > 49.6 µM
activity against T. gondii (in words) [1]: inactive
IC50 [1]: > 49.6 µM
IC50 (L. major promastigotes; Leishmania major): > 49.6 µM

CN(C)c1ccc(/C=C/C=N/NC(=O)c2cccc(O)c2)cc1 [Compound 2f, (E)-N′-(4-Dimethylaminocinnamylidene)-3-hydroxybenzoylhydrazide]
IC50 (macrophages): > 42.7 µM
IC50 (Vero monkey kidney cells): 40.1 ± 6.8 µM
melting point: 257 to 258 °C
IC50 (L. major amastigotes): > 42.7 µM
activity against T. gondii (in words) [1]: inactive
IC50 [1]: > 42.7 µM
IC50 (L. major promastigotes; Leishmania major): > 42.7 µM

CN(C)c1ccc(/C=C/C=N/NC(=O)c2cccc(F)c2)cc1 [Compound 2j, (E)-N′-(4-Dimethylaminocinnamylidene)-3-fluorobenzoylhydrazide]
IC50 (macrophages): > 42.4 µM
IC50 (Vero monkey kidney cells): > 42.4 µM
melting point: 208 °C
IC50 (L. major amastigotes): > 42.4 µM
IC50 [1]: > 42.4 µM
IC50 (L. major promastigotes; Leishmania major): > 42.4 µM

CC(C)Cc1ccc(CC(C)/C=N/NC(=O)c2ccncc2)cc1 (stereo not drawn) [Compound 3g, N′-2-Methyl-3-[4-(2-methylpropyl)phenyl]propanylidene-isonicotinoylhydrazide]
IC50 (macrophages): > 61.8 µM
IC50 (Vero monkey kidney cells): > 61.8 µM
melting point: 122 to 123 °C
IC50 (L. major amastigotes): > 61.8 µM
IC50 [1]: 60.6 ± 10.1 µM
IC50 (L. major promastigotes; Leishmania major): > 61.8 µM
